Test results published in patent publication US7452906B2, “Pyridine derivatives as Raf kinase inhibitors” (SmithKline Beecham P.L.C., priority 2001, dated 2008).

How the values were obtained:
human melanoma A375P = assay: Methylene Blue Growth Inhibition Assay (Assay 2), A375P; format: cell-based; settings: 72 h, B-Raf V599E, Ras wt, 3 days
Experimental: (§1) Methylene Blue Growth Inhibition Assay (Assay 2)
(§2) Normal human foreskin fibroblasts (HFF), human melanoma (A375P, SKMEL2, SKMEL3) colon carcinoma (Colo 205) were cultured in the following growth media: A375P, Colo 205, Roswell Park Memorial Institute (RPMI) 1640 (Life Technologies 22400-089) containing 10% fetal bovine serum (FBS); HFF, Dulbecco's modified Eagle Medium (DMEM) (Life Technologies 12320-032) containing 10% FBS; SKMEL2 and SKMEL3, Minimum Essential Medium (MEM, Life Technologies 11095-080) containing 1× non-essential amino acids (Life Technologies 11140-050) and 10% FBS. Cells were harvested using 0.25% trypsin/1 mM, EDTA, counted using a haemocytometer, and plated in 100 microliters of the appropriate media, at the following densities, in a 96-well tissue culture plate Falcon 3075): HFF and A375P, 5,000 cells/well; all other cell lines, 10,000 cells/well. The next day, compounds were diluted in RPMI containing 100 micrograms/ml gentamicin, at twice the final required concentration, from 10 mM stock solutions in dimethyl sulphoxide (DMSO). One hundred microliters per well of these dilutions were added to the 100 microliters of media currently on the cell plates. RPMI containing 0.6% DMSO was added to control wells. […]. The final concentration of DMSO in all wells was 0.3%. Cells were incubated at 37° C., 5% CO2 for 3 days. Medium was removed by aspiration. Cell biomass was estimated by staining cells with 90 μl per well methylene blue (Sigma M9140, 0.5% in 50:50 ethanol:water) and incubation at room temperature for at least 30 minutes. Stain was removed, the plates rinsed by immersion in deionized water and air-dried. To release stain from the cells 100 μl of solubilization solution was added (1% N-lauroyl sarcosine, sodium salt, Sigma L5125, in phosphate-buffered saline solution (PBS)), and plates were incubated at room temperature for 30 minutes. Optical density at 620 nm was measured on a microplate reader. Percent inhibition of cell growth was calculated relative to vehicle treated control wells. […]

[1] = test system: colon carcinoma (Colo 205); assay: Methylene Blue Growth Inhibition Assay (Assay 2), Colo205; format: cell-based; settings: Homo sapiens, COLO 205, 72 h, colorectal cancer, B-Raf V599E, Ras wt, 3 days
Experimental: as §1, §2

human melanoma SKMEL3 = assay: Methylene Blue Growth Inhibition Assay (Assay 2), SKMEL3; format: cell-based; settings: SK-MEL3, 72 h, B-Raf V599E, Ras wt, 3 days
Experimental: as §1, §2

[2] = test system: Human diploid foreskin fibroblasts (HFF); assay: XTT 72 hr Growth Inhibition (Assay 3), HFF; format: cell-based; settings: Fibroblast, normal, B-Raf wt, Ras wt
Experimental: (§3) XTT 72 hr Growth Inhibition Protocol for Mammalian Cultured Cells (Assay 3)
(§4) Human diploid foreskin fibroblasts (HFF) or human colon carcinoma (Colo 201) cells were grown in Dulbecco's modified Eagle's medium (DMEM) (Invitrogen/Life Technologies) containing 10% fetal bovine serum (FBS) and the antibiotics penicillin (100 Units/ml) and streotomycin (100 micrograms/ml) (Invitrogen/Life Technologies). Growth was at 37° C. in humidified 5% CO2 incubators in 75 cm^2 plastic flasks. Cells were harvested using 0.25% trypsin/1 mM ethylenediaminetetraacetic acid (EDTA), resuspended in growth medium, and counted using a hemocytometer. Flat-bottomed 96-well plates were seeded with 2×10^3 cells/well in a volume of 200 ul from trypsinized exponentially growing cultures. To “blank” wells, growth medium was added with no additions. Cells were incubated overnight to permit attachment.
(§5) Next day, medium from wells that contained cells was replaced with 180 microliters of fresh medium. Appropriate dilutions of test compounds were added to the wells from stock soloutions of compound dissolved in dimethyl sulfoxide DMSO); final DMSO concentration in all wells was 0.2%. Cells plus compound were incubated for an additional 72 hr at 37° C. under normal growth conditions. Cells were then assayed for viability using standard XTT/PMS*. Fifty microliters of XTT/PMS solution was added to each well and plates were incubated for 90 minutes at 37° C. Absorbance at 450 nm was then determined using a 96-well UV plate reader (Molecular Devices). Under these conditions, absorbance of untreated control cells at 450 nm was at least 1.0 optical density unit/ml. […] It was equal to 100×(A450 test well/A450 untreated control well), the A450s being averages of triplicate determinations. […]

[3] = test system: human colon carcinoma (Colo 201) cells; assay: XTT 72 hr Growth Inhibition (Assay 3), Colo201; format: cell-based; settings: colorectal cancer, B-Raf and Ras status ND
Experimental: as §3, §4, §5

human melanoma SKMEL2 = assay: Methylene Blue Growth Inhibition Assay (Assay 2), SKMEL2; format: cell-based; settings: SK-MEL-2, 72 h, B-Raf wt, [Q61R]N-Ras, 3 days
Experimental: as §1, §2

[4] = target: T1, human recombinant B-Raf protein (Homo sapiens, UniProt P15056); assay: Raf Kinase Assay (Assay 1): incorporation of radiolabelled phosphate into GST-kdMEK; format: biochemical; settings: head: Assay 1
T1 construct: made in house; host or cells: Sf9 insect cells (baculovirus)
T1 sequence (P15056 whole entry): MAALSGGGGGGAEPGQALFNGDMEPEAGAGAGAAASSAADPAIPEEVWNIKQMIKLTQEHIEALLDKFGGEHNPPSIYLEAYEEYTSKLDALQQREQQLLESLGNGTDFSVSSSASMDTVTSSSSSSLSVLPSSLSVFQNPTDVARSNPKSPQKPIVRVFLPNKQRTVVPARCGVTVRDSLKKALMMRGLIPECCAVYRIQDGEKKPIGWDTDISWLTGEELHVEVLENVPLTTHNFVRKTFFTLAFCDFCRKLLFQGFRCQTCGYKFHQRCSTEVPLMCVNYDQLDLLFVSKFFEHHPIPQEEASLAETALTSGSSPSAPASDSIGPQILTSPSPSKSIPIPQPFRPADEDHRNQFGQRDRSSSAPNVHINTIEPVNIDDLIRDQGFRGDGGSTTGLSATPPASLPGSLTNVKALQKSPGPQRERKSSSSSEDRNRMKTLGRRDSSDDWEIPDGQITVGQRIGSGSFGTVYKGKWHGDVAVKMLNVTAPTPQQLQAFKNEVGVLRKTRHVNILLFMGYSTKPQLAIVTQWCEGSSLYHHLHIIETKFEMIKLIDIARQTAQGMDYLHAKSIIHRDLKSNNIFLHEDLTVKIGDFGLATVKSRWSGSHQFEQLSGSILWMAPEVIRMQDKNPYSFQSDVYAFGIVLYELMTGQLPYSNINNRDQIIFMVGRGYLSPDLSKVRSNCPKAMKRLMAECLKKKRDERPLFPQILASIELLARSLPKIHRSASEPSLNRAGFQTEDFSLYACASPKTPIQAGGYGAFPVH
Experimental: Activity of human recombinant B-Raf protein was assessed in vitro by assay of the incorporation of radiolabelled phosphate to recombinant MAP kinase kinase (MEK), a known physiologic substrate of B-Raf. Catalytically active human recombinant B-Raf protein was obtained by purification from Sf9 insect cells infected with a human B-Raf recombinant baculovirus expression vector.
Method: Standard assay conditions of B-Raf catalytic activity utilised 3 ug of GST-kdMEK, 10 uM ATP and 2uCi ^33P-ATP, 50 mM MOPS, 0.1 mM EDTA, 0.1M sucrose, 10 mM MgCl2 plus 0.1% dimethylsulphoxide (containing compound where appropriate) in a total reaction volume of 30 ul. Reactions were incubated at 25° C. for 90 minutes and reactions terminated by addition of ethylenediaminetetraacetic acid (EDTA) to a final concentration of 50 uM. 10 ul of reaction was spotted to P81 phosphocellulose paper and air dried. Following four washes in ice cold 10% trichloroacetic acid, 0.5% phosphoric acid, papers were air dried prior to addition of liquid scintillant and measurement of radioactvity in a scintillation counter.

| IC50 (human melanoma A375P) [nM] | IC50 [1] [nM] | IC50 (human melanoma SKMEL3) [nM] | IC50 [3] [nM] | IC50 (human melanoma SKMEL2) [nM] | Kd [4] [nM] | SMILES | IC50 [2] [nM] |
| --- | --- | --- | --- | --- | --- | --- | --- |
| 1300 | 750 | 5300 | 490 | 4200 |  | ON=C1CCc2cc(-c3cc(CN4CCOCC4)oc3-c3ccncc3)ccc21 [Example 1, 5-(5-Morpholin-4-ylmethyl-2-pyridin-4-yl-furan-3-yl)-indan-1-one oxime] | > 30000 |
| 600 | 230 | 5400 | 890 | 2500 | 3.6 | O=S1(=O)CCN(Cc2cc(-c3ccc4c(c3)CCC4=NO)c(-c3ccncc3)o2)CC1 [Example 5, 5-[5-(1,1-Dioxo-1-thiomorpholin-4-ylmethyl)-2-pyridin-4-yl-furan-3-yl]-indan-1-one oxime] | > 30000 |
| 43 | 10 | 650 | 10 | 170 |  | ON=C1CCc2cc(-c3cc(C4CCNCC4)oc3-c3ccncc3)ccc21 [Example 31, 5-(5-Piperidin-4-yl-2-pyridin-4-yl-furan-3-yl)-indan-1-one oxime] | 21000 |
